The values below come from patent US20170166558A1, “O-GLCNAC TRANSFERASE (OGT) INHIBITORS AND USES THEREOF” (President and Fellows of Harvard College, priority 2014, published 2017).

The target of one test is T1, sOGT (Homo sapiens, UniProt O15294).
T1 sequence (O15294 1-665 isoform O15294-4): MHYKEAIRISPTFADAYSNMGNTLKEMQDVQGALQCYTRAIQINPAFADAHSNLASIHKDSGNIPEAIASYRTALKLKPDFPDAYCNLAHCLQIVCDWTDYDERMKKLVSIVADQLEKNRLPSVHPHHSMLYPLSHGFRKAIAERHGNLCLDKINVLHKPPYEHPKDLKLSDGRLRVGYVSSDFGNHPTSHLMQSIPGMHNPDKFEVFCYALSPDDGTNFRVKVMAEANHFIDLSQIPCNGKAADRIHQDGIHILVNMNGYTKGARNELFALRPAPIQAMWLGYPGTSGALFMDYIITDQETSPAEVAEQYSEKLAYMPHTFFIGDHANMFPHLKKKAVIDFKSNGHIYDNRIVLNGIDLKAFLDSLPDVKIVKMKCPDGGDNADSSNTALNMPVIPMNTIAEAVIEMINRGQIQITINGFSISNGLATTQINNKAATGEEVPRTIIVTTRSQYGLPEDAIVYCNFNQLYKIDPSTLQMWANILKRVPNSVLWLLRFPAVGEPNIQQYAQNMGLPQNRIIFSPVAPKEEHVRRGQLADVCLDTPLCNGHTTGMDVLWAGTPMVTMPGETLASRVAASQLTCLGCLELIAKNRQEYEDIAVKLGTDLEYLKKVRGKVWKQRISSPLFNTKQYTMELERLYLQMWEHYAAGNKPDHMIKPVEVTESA
The experiment in a line: Fluorescence polarization displacement screen with fluorescein-linked UDP-GlcNAc analog. Particulars: 100 μM treatment. Format: binding. (In general: Fluorescence polarisation rises when a labelled molecule tumbles more slowly, as on binding a larger partner.)
Take `O=C([C@@H](NS(=O)(=O)c1ccc2[nH]c(=O)[nH]c(=O)c2c1)c1ccccc1)N(Cc1ccco1)Cc1cccs1`: the “% OGT activity (100 μM treatment)” value is “No inhibition”.
In the case of `O=C(NCc1cccs1)[C@H](NS(=O)(=O)c1ccc2[nH]c(=O)ccc2c1)c1ccccc1`, the “% OGT activity (100 μM treatment)” value is reported as “No inhibition”.
On the same count and under the same terms, to `O=C(C1c2ccccc2CN1S(=O)(=O)c1ccc2[nH]c(=O)ccc2c1)N(Cc1ccco1)Cc1cccs1` (stereo not shown) [drawing 114] belongs 43%.
Consider `O=C(C1c2ccccc2CCN1S(=O)(=O)c1ccc2[nH]c(=O)ccc2c1)N(Cc1ccco1)Cc1cccs1` (stereo not shown) [drawing 115], for which the “% OGT activity (100 μM treatment)” value is 65%.
Same read-out and setting: to `O=C(C(NS(=O)(=O)c1ccc2[nH]c(=O)ccc2c1)c1ccccc1C(F)(F)F)N(Cc1ccco1)Cc1cccs1` (stereo not shown) [drawing 119] belongs 0.7%; to `O=C(C(NS(=O)(=O)c1ccc2[nH]c(=O)ccc2c1)c1ccccc1C(F)(F)F)N(Cc1ccco1)Cc1cccs1` (stereo not shown) [drawing 121], 11%.
The same measure, in the same setting: to `O=C(C(NS(=O)(=O)c1ccc2[nH]c(=O)ccc2c1)c1ccc(C(F)(F)F)cc1)N(Cc1ccco1)Cc1cccs1` (stereo not shown) [drawing 122] belongs 33%.
On the same count and under the same terms, to `O=C(C(NS(=O)(=O)c1ccc2[nH]c(=O)ccc2c1)c1ccccc1C(F)(F)F)N(Cc1ccco1)Cc1cccs1` (stereo not shown) [drawing 125] belongs 38%.
For `O=C(C(NS(=O)(=O)c1ccc2[nH]c(=O)ccc2c1)c1ccc(C(F)(F)F)cc1)N(Cc1ccco1)Cc1cccs1` (stereo not shown) [drawing 126], the “% OGT activity (100 μM treatment)” value is recorded as 54%.
Still for that read-out and setting: under `O=C(C(NS(=O)(=O)c1ccc2[nH]c(=O)ccc2c1)c1cccc(C(F)(F)F)c1)N(Cc1ccco1)Cc1cccs1` (stereo not shown) [drawing 127] stands 29%.
Still for that read-out and setting: to `O=C(C(NS(=O)(=O)c1ccc2[nH]c(=O)ccc2c1)c1cccc(C(F)(F)F)c1)N(Cc1ccco1)Cc1cccs1` (stereo not shown) [drawing 128] belongs 7.4%; to `O=C(C(NS(=O)(=O)c1ccc2[nH]c(=O)ccc2c1)c1ccccc1F)N(Cc1ccco1)Cc1cccs1` (stereo not shown) [drawing 129], 0.5%; to `Cc1ccc(C(NS(=O)(=O)c2ccc3[nH]c(=O)ccc3c2)C(=O)N(Cc2ccco2)Cc2cccs2)cc1` (stereo not shown) [drawing 130], 11%.
On to `Cc1cccc(C(NS(=O)(=O)c2ccc3[nH]c(=O)ccc3c2)C(=O)N(Cc2ccco2)Cc2cccs2)c1` (stereo not shown) [drawing 131], for which the “% OGT activity (100 μM treatment)” value is given as “No inhibition”.
The same measure, in the same setting: to `Cc1ccccc1C(NS(=O)(=O)c1ccc2[nH]c(=O)ccc2c1)C(=O)N(Cc1ccco1)Cc1cccs1` (stereo not shown) [drawing 132] belongs 4.5%; to `O=C(C(NS(=O)(=O)c1ccc2[nH]c(=O)ccc2c1)c1ccccc1F)N(Cc1ccco1)Cc1cccs1` (stereo not shown) [drawing 133], 24%.
`Cc1ccc(C(NS(=O)(=O)c2ccc3[nH]c(=O)ccc3c2)C(=O)N(Cc2ccco2)Cc2cccs2)cc1` (stereo not shown) [drawing 134]: the “% OGT activity (100 μM treatment)” value is listed as 66%.
Turning to `Cc1cccc(C(NS(=O)(=O)c2ccc3[nH]c(=O)ccc3c2)C(=O)N(Cc2ccco2)Cc2cccs2)c1` (stereo not shown) [drawing 135], the “% OGT activity (100 μM treatment)” value is “No inhibition”.
In the case of `Cc1ccccc1C(NS(=O)(=O)c1ccc2[nH]c(=O)ccc2c1)C(=O)N(Cc1ccco1)Cc1cccs1` (stereo not shown) [drawing 136], the “% OGT activity (100 μM treatment)” value came out at 10%.

Still in this test, the particulars now being: 100 μM treatment; read-out: % OGT activity (100 μM treatment).
As to `O=C([C@H](NS(=O)(=O)c1ccc2[nH]c(=O)ccc2c1)c1ccc(O)cc1)N(Cc1ccco1)Cc1cccs1`, the remaining activity at 100 µM amounted to 0.7%.
Same read-out and setting: to `O=C([C@H](NS(=O)(=O)c1ccc2[nH]c(=O)[nH]c(=O)c2c1)c1ccccc1)N(Cc1ccco1)Cc1cccs1` belongs 68%; to `O=C([C@H](NS(=O)(=O)c1ccc2[nH]c(=O)ccc2c1)c1ccc(F)cc1)N(Cc1ccco1)Cc1cccs1`, 5%.
Same read-out and setting: under `O=C([C@H](NS(=O)(=O)c1ccc2[nH]c(=O)ccc2c1)c1ccc(Cl)cc1)N(Cc1ccco1)Cc1cccs1` stands 22%.
Regarding `O=C([C@H](NS(=O)(=O)c1ccc2[nH]c(=O)ccc2c1)C1CCCCC1)N(Cc1ccco1)Cc1cccs1`, the remaining activity at 100 µM turned out to be 22%.
In the case of `O=C([C@H](NS(=O)(=O)c1ccc2[nH]c(=O)ccc2c1)c1ccccc1Cl)N(Cc1ccco1)Cc1cccs1`, the remaining activity at 100 µM was 4%.
For the compound `O=C([C@H](NS(=O)(=O)c1ccc2[nH]c(=O)ccc2c1)c1cccs1)N(Cc1ccco1)Cc1cccs1`, the remaining activity at 100 µM came to 7%.
Still for that read-out and setting: to `COc1ccc([C@@H](NS(=O)(=O)c2ccc3[nH]c(=O)ccc3c2)C(=O)N(Cc2ccco2)Cc2cccs2)cc1` belongs 2.9%.
As for `O=C([C@H](NS(=O)(=O)c1ccc2[nH]c(=O)ccc2c1)c1cccc(F)c1)N(Cc1ccco1)Cc1cccs1`, the remaining activity at 100 µM is 2.6%.
On to `O=C([C@@H](NS(=O)(=O)c1ccc2[nH]c(=O)ccc2c1)c1ccc(F)cc1)N(Cc1ccco1)Cc1cccs1`, for which the remaining activity at 100 µM came to 0.9%.
Regarding `CN1CCN(C(=O)[C@H](NS(=O)(=O)c2ccc3[nH]c(=O)ccc3c2)c2ccccc2)CC1`, the remaining activity at 100 µM worked out at 47%.
The same measure, in the same setting: under `CN(Cc1cccs1)C(=O)[C@H](NS(=O)(=O)c1ccc2[nH]c(=O)ccc2c1)c1ccccc1` stands 2.5%.
`O=C([C@H](NS(=O)(=O)c1ccc2[nH]c(=O)ccc2c1)c1ccccc1)N1CCOCC1`: the remaining activity at 100 µM came out at 47%.
Same read-out and setting: to `CCNC(=O)[C@H](NS(=O)(=O)c1ccc2[nH]c(=O)ccc2c1)c1ccccc1` belongs 26%; to `COc1cccc([C@@H](NS(=O)(=O)c2ccc3[nH]c(=O)ccc3c2)C(=O)N(Cc2ccco2)Cc2cccs2)c1`, 2.5%.
Same read-out and setting: under `O=C(NCc1ccco1)[C@H](NS(=O)(=O)c1ccc2[nH]c(=O)ccc2c1)c1ccccc1` stands 64%; under `CN(Cc1ccco1)C(=O)[C@H](NS(=O)(=O)c1ccc2[nH]c(=O)ccc2c1)c1ccccc1`, 5%.
In the case of `O=C([C@H](NS(=O)(=O)c1ccc2[nH]c(=O)ccc2c1)c1ccccc1)N1CCCCC1`, the remaining activity at 100 µM was determined as 22%.
Still for that read-out and setting: to `CCCC[C@@H](NS(=O)(=O)c1ccc2[nH]c(=O)ccc2c1)C(=O)N(Cc1ccco1)Cc1cccs1` belongs 8%; to `O=C(C1c2ccccc2CN1S(=O)(=O)c1ccc2[nH]c(=O)ccc2c1)N(Cc1ccco1)Cc1cccs1` (stereo not shown) [drawing 109], 56%.
With `O=C(C1c2ccccc2CCN1S(=O)(=O)c1ccc2[nH]c(=O)ccc2c1)N(Cc1ccco1)Cc1cccs1` (stereo not shown) [drawing 110], the remaining activity at 100 µM came out at 47%.
Turning to `O=C([C@@H](Cc1ccccc1)NS(=O)(=O)c1ccc2[nH]c(=O)ccc2c1)N(Cc1ccco1)Cc1cccs1` [drawing 149], the remaining activity at 100 µM is 53%.

Still in this test, the particulars now being: read-out: % OGT activity (100 μM treatment).
With `O=C([C@@H](NS(=O)(=O)c1ccc2[nH]c(=O)ccc2c1)c1ccccc1)N(Cc1ccco1)Cc1cccs1`, the remaining activity at 100 µM worked out at 7%.
On the same count and under the same terms, under `O=C([C@H](NS(=O)(=O)c1ccc2[nH]c(=O)ccc2c1)c1ccccc1)N(Cc1ccco1)Cc1cccs1` stands 1.73%.
